Measured values published in BindingDB's records for doi:10.1021/jm00160a056 (1986).

Molecular target: Trifunctional purine biosynthetic protein adenosine-3 (Mus musculus) (UniProt Q64737)
Experiment: Compound was evaluated for the inhibition of GAR transformylase isolated from murine lymphoma cell line L5178Y

Trifunctional purine biosynthetic protein adenosine-3 (Mus musculus), sequence (Q64737 whole entry, looked up): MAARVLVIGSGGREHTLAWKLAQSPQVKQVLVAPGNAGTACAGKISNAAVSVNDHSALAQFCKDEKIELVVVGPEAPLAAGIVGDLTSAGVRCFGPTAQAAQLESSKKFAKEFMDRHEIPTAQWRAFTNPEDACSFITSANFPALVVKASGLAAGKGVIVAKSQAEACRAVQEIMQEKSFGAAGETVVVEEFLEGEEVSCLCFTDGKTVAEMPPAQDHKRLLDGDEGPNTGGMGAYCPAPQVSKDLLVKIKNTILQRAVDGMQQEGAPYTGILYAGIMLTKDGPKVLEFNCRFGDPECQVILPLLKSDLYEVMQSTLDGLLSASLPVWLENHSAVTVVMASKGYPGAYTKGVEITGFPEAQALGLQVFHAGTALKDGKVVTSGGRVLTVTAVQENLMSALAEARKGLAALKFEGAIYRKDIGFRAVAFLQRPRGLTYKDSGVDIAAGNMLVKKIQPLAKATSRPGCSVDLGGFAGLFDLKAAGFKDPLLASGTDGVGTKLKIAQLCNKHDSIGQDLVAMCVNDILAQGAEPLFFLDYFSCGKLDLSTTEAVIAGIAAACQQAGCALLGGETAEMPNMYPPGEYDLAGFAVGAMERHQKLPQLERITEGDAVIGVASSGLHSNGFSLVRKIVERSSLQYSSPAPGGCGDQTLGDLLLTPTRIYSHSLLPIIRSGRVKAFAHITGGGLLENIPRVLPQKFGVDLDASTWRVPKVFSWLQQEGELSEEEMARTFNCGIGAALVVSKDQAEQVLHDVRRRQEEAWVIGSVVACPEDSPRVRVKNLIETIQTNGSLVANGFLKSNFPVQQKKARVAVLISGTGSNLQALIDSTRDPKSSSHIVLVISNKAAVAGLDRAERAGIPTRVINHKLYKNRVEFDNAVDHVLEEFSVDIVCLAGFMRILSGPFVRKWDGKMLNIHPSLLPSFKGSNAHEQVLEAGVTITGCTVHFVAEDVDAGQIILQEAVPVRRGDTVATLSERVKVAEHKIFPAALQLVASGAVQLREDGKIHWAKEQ

| Ki [nM] | SMILES |
| --- | --- |
| 2000 | Nc1nc2ccc(CNc3ccc(C(=O)NC(CCC(=O)O)C(=O)O)cc3)cc2c(=O)[nH]1 (configuration not stated) |
| 1300 | CC(=O)N(Cc1ccc2nc(N)[nH]c(=O)c2c1)c1ccc(C(=O)NC(CCC(=O)O)C(=O)O)cc1 (configuration not stated) [2-{4-[Acetyl-(2-amino-4-oxo-3,4-dihydro-quinazolin-6-ylmethyl)-amino]-benzoylamino}-pentanedioic acid] |
